The NIST ThermoML archive (doi:10.1021/acs.jced.5b00259)

Test: xn = mol fraction of the nth substance listed
Details: 100 kPa, Liquid

CC[NH+]=C(N(C)C)N(C)C.O=S(=O)([N-]S(=O)(=O)C(F)(F)F)C(F)(F)F + CCCO
Details	mass density [kg/m3]	viscosity [mPa·s]
293.15 K, x1 = 0.1024	997.39	4.462
293.15 K, x1 = 0.2019	1114.71	7.27
293.15 K, x1 = 0.2973	1192.09	10.87
293.15 K, x1 = 0.4011	1252.75	16.1
293.15 K, x1 = 0.4988	1295.36	21.63
293.15 K, x1 = 0.5962	1328.36	28.19
293.15 K, x1 = 0.6997	1356.59	36.71
293.15 K, x1 = 0.7931	1377.81	45.87
293.15 K, x1 = 0.9014	1398.72	58.37
293.15 K, x1 = 1	1414.89	74.61
298.15 K, x1 = 0.1024	992.96	3.868
298.15 K, x1 = 0.2019	1110.07	6.213
298.15 K, x1 = 0.2973	1187.4	9.224
298.15 K, x1 = 0.4011	1247.97	13.49
298.15 K, x1 = 0.4988	1290.53	18.01
298.15 K, x1 = 0.5962	1323.53	23.23
298.15 K, x1 = 0.6997	1351.73	29.87
298.15 K, x1 = 0.7931	1372.97	37.15
298.15 K, x1 = 0.9014	1393.86	46.91
298.15 K, x1 = 1	1410.03	58.86
303.15 K, x1 = 0.1024	988.5	3.38
303.15 K, x1 = 0.2019	1105.48	5.362
303.15 K, x1 = 0.2973	1182.67	7.898
303.15 K, x1 = 0.4011	1243.16	11.48
303.15 K, x1 = 0.4988	1285.7	15.21
303.15 K, x1 = 0.5962	1318.7	19.43
303.15 K, x1 = 0.6997	1346.89	24.76
303.15 K, x1 = 0.7931	1368.14	30.48
303.15 K, x1 = 0.9014	1389.02	38.17
303.15 K, x1 = 1	1405.19	47.27
308.15 K, x1 = 0.1024	984.03	2.972
308.15 K, x1 = 0.2019	1100.81	4.667
308.15 K, x1 = 0.2973	1177.93	6.831
308.15 K, x1 = 0.4011	1238.35	9.85
308.15 K, x1 = 0.4988	1280.88	12.98
308.15 K, x1 = 0.5962	1313.87	16.47
308.15 K, x1 = 0.6997	1342.09	20.85
308.15 K, x1 = 0.7931	1363.32	25.37
308.15 K, x1 = 0.9014	1384.21	31.53
308.15 K, x1 = 1	1400.38	38.71
313.15 K, x1 = 0.1024	979.55	2.63
313.15 K, x1 = 0.2019	1096.13	4.093
313.15 K, x1 = 0.2973	1173.18	5.966
313.15 K, x1 = 0.4011	1233.59	8.525
313.15 K, x1 = 0.4988	1276.07	11.21
313.15 K, x1 = 0.5962	1309.06	14.12
313.15 K, x1 = 0.6997	1337.29	17.73
313.15 K, x1 = 0.7931	1358.51	21.42
313.15 K, x1 = 0.9014	1379.42	26.43
313.15 K, x1 = 1	1395.59	32.2
318.15 K, x1 = 0.1024	975.03	2.34
318.15 K, x1 = 0.2019	1091.46	3.684
318.15 K, x1 = 0.2973	1168.42	5.248
318.15 K, x1 = 0.4011	1228.78	7.433
318.15 K, x1 = 0.4988	1271.27	9.743
318.15 K, x1 = 0.5962	1304.24	12.24
318.15 K, x1 = 0.6997	1332.49	15.26
318.15 K, x1 = 0.7931	1353.72	18.28
318.15 K, x1 = 0.9014	1374.63	22.43
318.15 K, x1 = 1	1390.8	27.09
323.15 K, x1 = 0.1024	970.48	2.094
323.15 K, x1 = 0.2019	1086.71	3.283
323.15 K, x1 = 0.2973	1163.66	4.64
323.15 K, x1 = 0.4011	1223.97	6.437
323.15 K, x1 = 0.4988	1266.46	8.553
323.15 K, x1 = 0.5962	1299.4	10.7
323.15 K, x1 = 0.6997	1327.7	13.27
323.15 K, x1 = 0.7931	1348.94	15.77
323.15 K, x1 = 0.9014	1369.87	19.26
323.15 K, x1 = 1	1386.03	23.14
